{
  "source": "paper PMC9950431",
  "about": "“A bivalent remipede toxin promotes calcium release via ryanodine receptor activation” (Nature Communications, 2023)",
  "key": {"RyR2 [1]": {"tested_on": "RyR2", "experiment": "Single channel electrophysiology of RyR2 channels inserted into lipid bilayers (exposure to peptide)", "format": "biochemical, sheep (cardiac SR)", "procedure": "Cardiac SR was prepared from mature female crossbred sheep hearts, and skeletal SR vesicles were isolated from the back and leg muscles of mature female New Zealand white rabbits[29],[54] with approval from the ANU Animal Experiment Ethics Committee Protocol Number A2015/35. […] Solutions for vesicle incorporation contained (mM): cis 230 caesium methanesulfonate (CsMS); 20 CsCl; 1 CaCl2 and 10 […] (TES) pH 7.4 and trans 30 CsMS; 20 CsCl; 1 CaCl2 10 TES; pH 7.4. […] Following incorporation, 200 mM CsMS was added to the trans solution and the cis solution exchanged with recording solution containing (mM): 230 CsMS; 20 CsCl; 0.001 CaCl2;10 TES and pH 7.4, with [Ca^2+] set by a [BAPTA] determined using a Ca^2+ electrode. The cytoplasmic and luminal solutions contained 1 μM and 1 mM Ca^2+ respectively, with symmetrical 250/250 mM CsMS. Bilayer voltage was switched between +40 mV and −40 mV (cytoplasmic voltage relative to grounded luminal solution) every 30 s. The activity of the RyR channels used here included 1 µM Ca^2+ in the cytoplasmic solution and 1 mM Ca^2+ in the luminal solution[29],[55]. Electrophysiology experiments were analysed using Channel 2 (P.W. Gage, M. Smith, Australian National University) and Channel 3 (N.W. Laver, University of Newcastle, Australia) software, available from the authors upon request. Statistical analyses were performed using Microsoft Excel (Office 365). […] Following most incorporation events, a single channel only was active in the bilayer and channel open probability (Po), mean open time (To), mean closed time (Tc) and open event frequency (Fo) were measured. When 2–4 channels were active in a bilayer, PO was approximated from the fractional mean current (I’F), i.e., mean current divided by maximum current. I’F is equal to PO in a single channel and indicates the average PO of multiple channels in a bilayer. […] Experiments at UN also included a minority of multi-channel experiments. The bilayer rigs, solution composition, source of channels, data acquisition and analyses methods were all identical.\nStatistical analysis of single channel data was performed using Excel spreadsheets and embedded Students t-test functions or a sign test as indicated in the graphs in Figs. 1 and 3."}, "RyR2 [2]": {"tested_on": "RyR2", "experiment": "Washout (reversibility/avidity) single channel experiments, RyR2", "format": "biochemical, sheep (cardiac SR)", "settings": "10 nM and 1 μM", "procedure": "Cardiac SR was prepared from mature female crossbred sheep hearts, and skeletal SR vesicles were isolated from the back and leg muscles of mature female New Zealand white rabbits[29],[54] with approval from the ANU Animal Experiment Ethics Committee Protocol Number A2015/35. […] Solutions for vesicle incorporation contained (mM): cis 230 caesium methanesulfonate (CsMS); 20 CsCl; 1 CaCl2 and 10 […] (TES) pH 7.4 and trans 30 CsMS; 20 CsCl; 1 CaCl2 10 TES; pH 7.4. SR vesicles routinely incorporated with the cytoplasmic surface of the SR and RyR facing the cis chamber. Following incorporation, 200 mM CsMS was added to the trans solution and the cis solution exchanged with recording solution containing (mM): 230 CsMS; 20 CsCl; 0.001 CaCl2;10 TES and pH 7.4, with [Ca^2+] set by a [BAPTA] determined using a Ca^2+ electrode. […] Electrophysiology experiments were analysed using Channel 2 (P.W. Gage, M. Smith, Australian National University) and Channel 3 (N.W. Laver, University of Newcastle, Australia) software, available from the authors upon request. […] Following most incorporation events, a single channel only was active in the bilayer and channel open probability (Po), mean open time (To), mean closed time (Tc) and open event frequency (Fo) were measured. […] In all experiments control channel activity was recorded for 3 to 5 min before exposure to the test compound. […]"}, "ryanodine receptor": {"target": "T1, ryanodine receptor (Oryctolagus cuniculus, UniProt P11716)", "T1 construct": "skeletal SR vesicles were isolated from the back and leg muscles of mature female New Zealand white rabbits; from tissue; host or cells: rabbit back and leg skeletal muscle, sarcoplasmic reticulum vesicles", "T1 sequence (P11716 whole entry, canonical isoform)": "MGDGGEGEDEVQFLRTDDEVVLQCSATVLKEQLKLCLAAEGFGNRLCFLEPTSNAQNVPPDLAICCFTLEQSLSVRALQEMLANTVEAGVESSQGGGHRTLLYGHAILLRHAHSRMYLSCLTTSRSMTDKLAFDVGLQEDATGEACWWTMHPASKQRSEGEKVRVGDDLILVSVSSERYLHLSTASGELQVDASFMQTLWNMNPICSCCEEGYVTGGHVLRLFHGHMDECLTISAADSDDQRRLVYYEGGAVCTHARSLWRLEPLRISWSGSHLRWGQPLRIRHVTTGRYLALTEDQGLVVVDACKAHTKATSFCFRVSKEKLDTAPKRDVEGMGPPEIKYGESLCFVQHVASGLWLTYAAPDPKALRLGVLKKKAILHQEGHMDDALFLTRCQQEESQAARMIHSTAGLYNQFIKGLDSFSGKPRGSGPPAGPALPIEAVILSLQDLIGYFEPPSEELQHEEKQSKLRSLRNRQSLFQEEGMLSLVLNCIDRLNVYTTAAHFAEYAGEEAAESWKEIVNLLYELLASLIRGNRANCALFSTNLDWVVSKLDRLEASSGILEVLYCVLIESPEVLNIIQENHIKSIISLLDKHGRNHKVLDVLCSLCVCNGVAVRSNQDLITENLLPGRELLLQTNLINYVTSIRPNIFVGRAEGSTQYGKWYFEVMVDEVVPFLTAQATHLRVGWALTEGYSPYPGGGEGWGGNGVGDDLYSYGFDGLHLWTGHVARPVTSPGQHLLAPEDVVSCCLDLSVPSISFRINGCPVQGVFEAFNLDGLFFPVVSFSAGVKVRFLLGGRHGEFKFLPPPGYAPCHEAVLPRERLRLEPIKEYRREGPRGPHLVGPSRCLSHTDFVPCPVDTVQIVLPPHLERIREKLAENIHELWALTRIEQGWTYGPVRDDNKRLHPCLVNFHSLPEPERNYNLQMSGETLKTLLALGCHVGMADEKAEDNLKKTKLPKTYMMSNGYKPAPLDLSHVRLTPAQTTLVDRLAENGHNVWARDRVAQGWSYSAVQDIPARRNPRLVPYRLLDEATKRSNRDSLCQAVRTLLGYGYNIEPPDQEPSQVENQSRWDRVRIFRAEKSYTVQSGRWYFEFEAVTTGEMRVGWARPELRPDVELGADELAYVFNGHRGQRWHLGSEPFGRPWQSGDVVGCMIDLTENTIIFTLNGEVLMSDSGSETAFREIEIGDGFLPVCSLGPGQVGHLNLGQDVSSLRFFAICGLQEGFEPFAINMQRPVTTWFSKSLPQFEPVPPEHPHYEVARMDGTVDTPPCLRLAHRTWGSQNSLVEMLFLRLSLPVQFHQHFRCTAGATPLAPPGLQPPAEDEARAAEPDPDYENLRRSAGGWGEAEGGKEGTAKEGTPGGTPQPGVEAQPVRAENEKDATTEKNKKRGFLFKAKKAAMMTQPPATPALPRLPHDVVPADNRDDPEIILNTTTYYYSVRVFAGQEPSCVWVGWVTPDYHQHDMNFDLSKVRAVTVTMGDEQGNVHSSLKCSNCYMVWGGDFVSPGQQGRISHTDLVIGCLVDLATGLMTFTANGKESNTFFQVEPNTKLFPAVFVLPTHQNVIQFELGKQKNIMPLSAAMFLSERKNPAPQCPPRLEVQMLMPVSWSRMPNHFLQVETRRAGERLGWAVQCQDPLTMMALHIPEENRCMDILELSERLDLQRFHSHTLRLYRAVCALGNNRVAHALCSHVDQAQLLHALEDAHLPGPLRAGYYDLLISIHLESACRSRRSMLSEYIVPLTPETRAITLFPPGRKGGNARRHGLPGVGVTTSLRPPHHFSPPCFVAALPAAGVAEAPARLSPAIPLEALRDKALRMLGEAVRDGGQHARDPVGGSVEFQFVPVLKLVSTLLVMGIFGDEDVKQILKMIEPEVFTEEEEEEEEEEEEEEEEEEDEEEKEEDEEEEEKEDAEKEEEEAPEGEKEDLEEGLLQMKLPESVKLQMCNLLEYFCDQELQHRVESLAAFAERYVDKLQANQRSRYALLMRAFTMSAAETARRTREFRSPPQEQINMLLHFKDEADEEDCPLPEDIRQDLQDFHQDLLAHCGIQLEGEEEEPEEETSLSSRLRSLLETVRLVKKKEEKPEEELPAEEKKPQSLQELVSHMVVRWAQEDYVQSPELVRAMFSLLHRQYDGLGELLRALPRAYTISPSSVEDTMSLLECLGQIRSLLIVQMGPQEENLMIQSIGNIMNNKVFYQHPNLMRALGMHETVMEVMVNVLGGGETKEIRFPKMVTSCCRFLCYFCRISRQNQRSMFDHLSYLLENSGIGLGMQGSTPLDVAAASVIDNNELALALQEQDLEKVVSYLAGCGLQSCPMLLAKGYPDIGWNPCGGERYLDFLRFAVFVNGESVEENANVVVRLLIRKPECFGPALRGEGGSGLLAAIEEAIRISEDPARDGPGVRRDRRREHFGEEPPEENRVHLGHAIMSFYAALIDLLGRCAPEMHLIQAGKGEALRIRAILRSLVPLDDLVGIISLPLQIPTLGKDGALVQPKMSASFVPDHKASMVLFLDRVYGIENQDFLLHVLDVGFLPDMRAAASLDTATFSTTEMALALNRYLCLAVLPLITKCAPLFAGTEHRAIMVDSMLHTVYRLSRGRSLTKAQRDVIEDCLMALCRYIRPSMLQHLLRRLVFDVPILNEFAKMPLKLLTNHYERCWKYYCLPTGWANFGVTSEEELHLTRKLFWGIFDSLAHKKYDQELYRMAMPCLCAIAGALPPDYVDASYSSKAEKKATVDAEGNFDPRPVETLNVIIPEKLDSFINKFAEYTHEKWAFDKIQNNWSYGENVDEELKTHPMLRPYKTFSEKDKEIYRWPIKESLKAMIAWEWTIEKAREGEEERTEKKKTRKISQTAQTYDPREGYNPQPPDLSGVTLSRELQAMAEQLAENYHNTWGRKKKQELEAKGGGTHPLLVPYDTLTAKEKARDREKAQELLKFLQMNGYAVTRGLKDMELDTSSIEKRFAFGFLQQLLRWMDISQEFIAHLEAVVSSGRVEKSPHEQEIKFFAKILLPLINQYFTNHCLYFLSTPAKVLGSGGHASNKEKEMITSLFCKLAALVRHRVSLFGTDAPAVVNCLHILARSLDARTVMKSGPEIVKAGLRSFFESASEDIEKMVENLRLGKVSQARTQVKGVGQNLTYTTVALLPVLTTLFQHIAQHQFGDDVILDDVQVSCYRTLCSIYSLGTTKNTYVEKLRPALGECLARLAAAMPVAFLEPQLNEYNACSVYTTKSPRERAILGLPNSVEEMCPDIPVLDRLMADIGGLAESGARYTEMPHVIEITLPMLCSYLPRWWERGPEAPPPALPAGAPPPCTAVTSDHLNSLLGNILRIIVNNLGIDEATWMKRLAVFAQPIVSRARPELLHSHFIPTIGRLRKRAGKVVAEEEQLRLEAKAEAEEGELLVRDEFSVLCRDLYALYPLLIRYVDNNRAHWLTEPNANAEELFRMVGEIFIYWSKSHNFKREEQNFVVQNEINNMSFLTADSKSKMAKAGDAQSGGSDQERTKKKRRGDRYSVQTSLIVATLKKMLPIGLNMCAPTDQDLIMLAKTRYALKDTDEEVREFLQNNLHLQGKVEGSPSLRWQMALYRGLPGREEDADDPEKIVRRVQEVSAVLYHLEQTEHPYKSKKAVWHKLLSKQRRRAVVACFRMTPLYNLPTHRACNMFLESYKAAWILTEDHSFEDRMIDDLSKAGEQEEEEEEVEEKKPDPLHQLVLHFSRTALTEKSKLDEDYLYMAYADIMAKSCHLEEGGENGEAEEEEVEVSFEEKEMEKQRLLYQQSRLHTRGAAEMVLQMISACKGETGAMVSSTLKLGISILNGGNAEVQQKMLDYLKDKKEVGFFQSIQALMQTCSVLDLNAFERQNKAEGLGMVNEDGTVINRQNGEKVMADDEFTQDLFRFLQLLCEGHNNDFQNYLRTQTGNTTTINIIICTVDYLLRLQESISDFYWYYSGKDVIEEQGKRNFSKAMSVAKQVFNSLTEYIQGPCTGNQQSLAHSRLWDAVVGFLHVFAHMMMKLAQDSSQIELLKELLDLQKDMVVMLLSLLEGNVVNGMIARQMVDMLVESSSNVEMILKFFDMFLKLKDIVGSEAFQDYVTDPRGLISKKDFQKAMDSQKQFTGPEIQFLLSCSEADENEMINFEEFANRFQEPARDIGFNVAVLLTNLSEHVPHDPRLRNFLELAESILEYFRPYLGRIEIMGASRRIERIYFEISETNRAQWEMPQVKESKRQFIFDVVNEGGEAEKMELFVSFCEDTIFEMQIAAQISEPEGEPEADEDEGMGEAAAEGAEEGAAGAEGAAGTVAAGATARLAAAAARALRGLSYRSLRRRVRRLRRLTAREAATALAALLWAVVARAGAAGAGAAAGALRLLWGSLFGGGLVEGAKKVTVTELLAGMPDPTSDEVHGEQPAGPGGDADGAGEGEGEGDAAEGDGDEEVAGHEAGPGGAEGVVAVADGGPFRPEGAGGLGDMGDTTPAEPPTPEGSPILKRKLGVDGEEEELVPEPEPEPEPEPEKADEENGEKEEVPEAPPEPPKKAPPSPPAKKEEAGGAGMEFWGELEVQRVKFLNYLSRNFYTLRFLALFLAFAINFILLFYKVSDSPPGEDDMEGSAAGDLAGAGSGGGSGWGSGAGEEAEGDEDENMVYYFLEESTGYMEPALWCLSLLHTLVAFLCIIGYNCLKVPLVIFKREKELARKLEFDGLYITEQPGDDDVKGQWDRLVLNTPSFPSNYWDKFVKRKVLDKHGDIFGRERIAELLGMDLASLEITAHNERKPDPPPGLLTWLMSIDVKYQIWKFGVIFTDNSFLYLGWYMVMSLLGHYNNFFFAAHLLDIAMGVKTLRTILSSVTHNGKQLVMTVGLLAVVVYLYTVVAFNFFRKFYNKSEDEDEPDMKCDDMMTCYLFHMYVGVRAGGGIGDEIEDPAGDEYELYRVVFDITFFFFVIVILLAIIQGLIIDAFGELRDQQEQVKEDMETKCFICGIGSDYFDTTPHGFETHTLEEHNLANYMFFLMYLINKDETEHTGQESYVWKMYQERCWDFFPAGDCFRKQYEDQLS", "experiment": "Single channel recording with Xt3a exposure, sheet \"Figure 3B\" (RyR isoform not given)", "format": "biochemical"}},
  "data": [
    {"substance": "φ-Xibalbin3-Xt3a", "values": [
      {"measurement": "channel activity during exposure", "setting": "RyR2 [1]", "result": "no significant change in activity during exposure to the toxin"},
      {"measurement": "channel activity", "setting": "RyR2 [1]; 1 nM and 10 nM", "result": "weak trend towards increased activity"},
      {"measurement": "openings to the maximum conductance", "setting": "RyR2 [1]; 1 nM to 1 μM", "result": "did not show any consistent changes in openings to the maximum conductance"},
      {"measurement": "substate level, % of maximum conductance", "setting": "RyR2 [1]; 10 nM Xt3a, −40 mV, prolonged gating to substate levels", "result": "< 50", "unit": "%"},
      {"measurement": "channel activity during washout", "setting": "RyR2 [2]", "result": "activity did appear to increase somewhat during washout"},
      {"measurement": "rel Po", "setting": "ryanodine receptor; 1nM Xt3a vs 1 micoM Ca, CT1124n", "result": 0.8977},
      {"measurement": "rel Po", "setting": "ryanodine receptor; 1nM Xt3a vs 1 micoM Ca, CT1124p", "result": 0.6333},
      {"measurement": "rel Po", "setting": "ryanodine receptor; 1nM Xt3a vs 1 micoM Ca, CT1125p (r7)", "result": 0.7826},
      {"measurement": "rel Po", "setting": "ryanodine receptor; 1nM Xt3a vs 1 micoM Ca, CT1125p (r12)", "result": 0.3373},
      {"measurement": "rel Po", "setting": "ryanodine receptor; 1nM Xt3a vs 1 micoM Ca, CT1126n", "result": 1.286},
      {"measurement": "rel Po", "setting": "ryanodine receptor; 1nM Xt3a vs 1 micoM Ca, CT1126p", "result": 0.0123},
      {"measurement": "rel Po", "setting": "ryanodine receptor; 1nM Xt3a vs 1 micoM Ca, CT1129p", "result": 0.92},
      {"measurement": "rel Po", "setting": "ryanodine receptor; 1nM Xt3a vs 1 micoM Ca, mean of 7 records", "result": 0.6956},
      {"measurement": "rel Po", "setting": "ryanodine receptor; 10nM Xt3a vs 1 micoM Ca, CT1124n", "result": 0.4488},
      {"measurement": "rel Po", "setting": "ryanodine receptor; 10nM Xt3a vs 1 micoM Ca, CT1124p", "result": 0.3778},
      {"measurement": "rel Po", "setting": "ryanodine receptor; 10nM Xt3a vs 1 micoM Ca, CT1125p (r7)", "result": 1.957},
      {"measurement": "rel Po", "setting": "ryanodine receptor; 10nM Xt3a vs 1 micoM Ca, CT1125p (r12)", "result": 1.108},
      {"measurement": "rel Po", "setting": "ryanodine receptor; 10nM Xt3a vs 1 micoM Ca, CT1126n", "result": 2.128},
      {"measurement": "rel Po", "setting": "ryanodine receptor; 10nM Xt3a vs 1 micoM Ca, CT1126p", "result": 0.02049},
      {"measurement": "rel Po", "setting": "ryanodine receptor; 10nM Xt3a vs 1 micoM Ca, CT1129p", "result": 0.23},
      {"measurement": "rel Po", "setting": "ryanodine receptor; 10nM Xt3a vs 1 micoM Ca, mean of 7 records", "result": 0.8957},
      {"measurement": "rel Po", "setting": "ryanodine receptor; 100nM Xt3a vs 1 micoM Ca, CT1134 n", "result": 0.7716},
      {"measurement": "rel Po", "setting": "ryanodine receptor; 100nM Xt3a vs 1 micoM Ca, CT1134 p", "result": 1.135},
      {"measurement": "rel Po", "setting": "ryanodine receptor; 100nM Xt3a vs 1 micoM Ca, CT1135 n", "result": 0.4052},
      {"measurement": "rel Po", "setting": "ryanodine receptor; 100nM Xt3a vs 1 micoM Ca, CT1135 p", "result": 0.4783},
      {"measurement": "rel Po", "setting": "ryanodine receptor; 100nM Xt3a vs 1 micoM Ca, CT1136 n", "result": 1.741},
      {"measurement": "rel Po", "setting": "ryanodine receptor; 100nM Xt3a vs 1 micoM Ca, CT1136 p", "result": 0.75},
      {"measurement": "rel Po", "setting": "ryanodine receptor; 100nM Xt3a vs 1 micoM Ca, CT1137 n", "result": 0.9231},
      {"measurement": "rel Po", "setting": "ryanodine receptor; 100nM Xt3a vs 1 micoM Ca, CT1137p", "result": 4},
      {"measurement": "rel Po", "setting": "ryanodine receptor; 100nM Xt3a vs 1 micoM Ca, CT1138n", "result": 4.333},
      {"measurement": "rel Po", "setting": "ryanodine receptor; 100nM Xt3a vs 1 micoM Ca, CT1138p", "result": 1.4},
      {"measurement": "rel Po", "setting": "ryanodine receptor; 100nM Xt3a vs 1 micoM Ca, mean of 10 records", "result": 1.5937},
      {"measurement": "rel Po", "setting": "ryanodine receptor; 1 microM Xt3a vs 1 micoM Ca, CT1134 n", "result": 1.472},
      {"measurement": "rel Po", "setting": "ryanodine receptor; 1 microM Xt3a vs 1 micoM Ca, CT1134 p", "result": 4.143},
      {"measurement": "rel Po", "setting": "ryanodine receptor; 1 microM Xt3a vs 1 micoM Ca, CT1135 n", "result": 32.1638},
      {"measurement": "rel Po", "setting": "ryanodine receptor; 1 microM Xt3a vs 1 micoM Ca, CT1136 n", "result": 1},
      {"measurement": "rel Po", "setting": "ryanodine receptor; 1 microM Xt3a vs 1 micoM Ca, CT1136 p", "result": 0.625},
      {"measurement": "rel Po", "setting": "ryanodine receptor; 1 microM Xt3a vs 1 micoM Ca, CT1137 n", "result": 1.769},
      {"measurement": "rel Po", "setting": "ryanodine receptor; 1 microM Xt3a vs 1 micoM Ca, CT1137p", "result": 2},
      {"measurement": "rel Po", "setting": "ryanodine receptor; 1 microM Xt3a vs 1 micoM Ca, CT1138n", "result": 1.286},
      {"measurement": "rel Po", "setting": "ryanodine receptor; 1 microM Xt3a vs 1 micoM Ca, CT1138p", "result": 0.9},
      {"measurement": "rel Po", "setting": "ryanodine receptor; 1 microM Xt3a vs 1 micoM Ca, mean (CT1135 p cell empty)", "result": 5.04}
    ]}
  ]
}
